In PubChem BioAssay (NCI) one finds TGI data, which are given here for 17 compounds.

Test systems include UACC-257 melanoma; HS 578T breast; NCI-H460 lung; RPMI-8226 leukemia; SF-295 CNS; MDA-N; NCI-H522 lung; UACC-62 melanoma; HT29 colon; DMS 273 small cell lung.
Holding throughout (assay): inhibition of tumour cell growth, NCI panel, 48 h

SMILES strings stand for the structures.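 Results reflect a 48-hour exposure of cells in 96-well plates to compound at five concentrations. Definition used: TGI = concentration required for complete inhibition of growth.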

As to `O=C(Nc1ccccc1)OC1OC(COC(=O)c2ccccc2)C(OC(=O)c2ccccc2)C1OS(=O)(=O)c1ccc([N+](=O)[O-])cc1` (stereo unspecified), the TGI in the assay on UACC-257 melanoma, with HS 578T breast, in the assay with NCI-H460 lung, with RPMI-8226 leukemia, in the assay with SF-295 CNS and with MDA-N was > 100 µM each time. Also, the TGI with NCI-H522 lung, in the assay on UACC-62 melanoma and in the assay on HT29 colon was > 100 µM each time.

Take `Cc1ccc(N=C2N=C(N3CC(C)OC(C)C3)c3ccccc32)cc1` (stereo unspecified): the TGI in the assay on DMS 273 small cell lung is 77.1 µM; in the assay with UACC-257 melanoma, 74.6 µM; with NCI-H460 lung it was > 100 µM; in the assay with RPMI-8226 leukemia, 87.1 µM; with SF-295 CNS it was > 100 µM; in the assay on UACC-62 melanoma, > 100 µM. The TGI in the assay on HT29 colon turned out to be 65 µM.

In the case of `Cc1ccc(-c2nc(-c3nccc4ccccc34)oc2-c2ccccc2)cc1`, the TGI with UACC-257 melanoma, in the assay on HS 578T breast, with NCI-H460 lung, in the assay on RPMI-8226 leukemia, in the assay with SF-295 CNS and with MDA-N was > 100 µM throughout. Moreover, the TGI in the assay on NCI-H522 lung, in the assay on UACC-62 melanoma and in the assay on HT29 colon was > 100 µM in each case.

Turning to `Oc1ccc2ccccc2c1C=NCc1c(O)ccc2ccccc12`, the TGI in the assay on UACC-257 melanoma, in the assay on HS 578T breast, in the assay with NCI-H460 lung, with RPMI-8226 leukemia, in the assay with SF-295 CNS and in the assay on MDA-N was > 100 µM each time. Also, the figures for the TGI in the assay with NCI-H522 lung, in the assay with UACC-62 melanoma and in the assay with HT29 colon were 50.5 µM, > 100 µM and > 100 µM, respectively.

For the compound `COc1ccc(O)cc1C(O)c1ccccc1` (stereo unspecified), the TGI in the assay with DMS 273 small cell lung, in the assay on UACC-257 melanoma, in the assay on NCI-H460 lung, with SF-295 CNS, in the assay with NCI-H522 lung and in the assay with UACC-62 melanoma was > 100 µM each time. In the assay with HT29 colon, the TGI was > 100 µM.

Take `O=C(N/C(=C\c1ccccc1O)c1nc2ccccc2[nH]1)c1ccccc1`: the TGI with DMS 273 small cell lung, with UACC-257 melanoma, in the assay on NCI-H460 lung, in the assay with RPMI-8226 leukemia, with NCI-H522 lung and in the assay with UACC-62 melanoma was > 100 µM throughout. Also, the TGI with HT29 colon is > 100 µM.

Turning to `CC(=O)Nc1ccc(S(=O)(=O)N=S(C)C)cc1`, the TGI in the assay on UACC-257 melanoma, with HS 578T breast, in the assay with NCI-H460 lung, in the assay on RPMI-8226 leukemia, with SF-295 CNS and with MDA-N was > 100 µM throughout. The TGI with NCI-H522 lung, in the assay on UACC-62 melanoma and with HT29 colon was > 100 µM throughout.

In the case of `COc1c(I)c(OC)c2c(c1I)O[C@@H]1OCC[C@H]21`, the TGI in the assay on DMS 273 small cell lung was 56.5 µM; with UACC-257 melanoma it was 67.1 µM; in the assay on NCI-H460 lung, 56.2 µM; in the assay on RPMI-8226 leukemia, > 100 µM; in the assay on SF-295 CNS it was > 100 µM; with UACC-62 melanoma, > 100 µM. Moreover, the TGI with HT29 colon is > 100 µM.

In the case of `COS(C)(=O)=O`, the TGI with UACC-257 melanoma, in the assay on HS 578T breast, with NCI-H460 lung, with RPMI-8226 leukemia, in the assay on MDA-N and in the assay on NCI-H522 lung was > 2 µM in each case. The TGI in the assay on UACC-62 melanoma and in the assay with HT29 colon was > 2 µM in each case.

As for `Cc1c2ccncc2c(C)c2c1sc1ccccc12`, the TGI in the assay with UACC-257 melanoma is 47.2 µM; in the assay with HS 578T breast it was 39.5 µM; with NCI-H460 lung it was 14.3 µM; in the assay on RPMI-8226 leukemia it was 48 µM; in the assay with SF-295 CNS, 26.4 µM; with MDA-N, 47.6 µM. Moreover, the figures for the TGI in the assay with NCI-H522 lung, with UACC-62 melanoma and with HT29 colon were 23.1 µM, 18.6 µM and 22.6 µM, respectively.

As to `CCCCNC(=S)OCCC(C)CCCC(C)C` (stereo unspecified), the TGI in the assay on DMS 273 small cell lung, in the assay on UACC-257 melanoma, with NCI-H460 lung, in the assay on RPMI-8226 leukemia, in the assay on SF-295 CNS and in the assay with UACC-62 melanoma was > 100 µM throughout. In the assay with HT29 colon, the TGI is > 100 µM.

Turning to `COc1cc([N+](=O)[O-])c(S(=O)(=O)O)cc1-n1nc(C(=O)Nc2ccccc2)n[n+]1-c1cc(S(=O)(=O)[O-])c([N+](=O)[O-])cc1OC`, the TGI in the assay with UACC-257 melanoma, in the assay with HS 578T breast, with NCI-H460 lung, in the assay with RPMI-8226 leukemia, in the assay with SF-295 CNS and in the assay with MDA-N was > 100 µM each time. The TGI with NCI-H522 lung, in the assay on UACC-62 melanoma and in the assay on HT29 colon was > 100 µM throughout.

For `CC1=CP(=O)(c2ccccc2)C=C(C)C1=C(Cl)Cl` (stereo unspecified), the TGI with DMS 273 small cell lung worked out at 9.22 µM; in the assay on NCI-H460 lung, 59.1 µM; in the assay with RPMI-8226 leukemia it was 11.5 µM; with SF-295 CNS, 34.6 µM; with NCI-H522 lung it was 7.23 µM; in the assay on UACC-62 melanoma it was 21.7 µM. The TGI with HT29 colon came out at 13.1 µM.

As for `CC1C=CC(C(N)C(=O)O)O1` (stereo unspecified), the TGI in the assay on DMS 273 small cell lung, in the assay on NCI-H460 lung, in the assay with RPMI-8226 leukemia, in the assay on SF-295 CNS, with NCI-H522 lung and in the assay with UACC-62 melanoma was > 100 µM throughout. For the same compound, the TGI with HT29 colon is > 100 µM.

For the compound `COc1cc(/C=C(\NC(=O)c2ccccc2)c2nc3ncncc3[nH]2)cc(OC)c1OC`, the TGI in the assay on DMS 273 small cell lung, with SF-295 CNS, with NCI-H522 lung, in the assay on UACC-62 melanoma and with HT29 colon was > 100 µM in each case.

Consider `CC(C)COC1Sc2ccccc2S1`, for which the TGI in the assay with DMS 273 small cell lung is 43.1 µM; with NCI-H460 lung, 24.6 µM; in the assay on RPMI-8226 leukemia it was > 100 µM; with SF-295 CNS, 31.3 µM; in the assay with UACC-62 melanoma, 25.8 µM; in the assay on HT29 colon it was 36.6 µM.

For `CCCc1nc(Cl)c(Cl)c(Cl)n1`, the TGI is > 100 µM with UACC-257 melanoma; 44.3 µM with HS 578T breast; > 100 µM in the assay with NCI-H460 lung; 3.94 µM with RPMI-8226 leukemia; > 100 µM with SF-295 CNS; > 100 µM with MDA-N. Further, the TGI was 30.5 µM in the assay with NCI-H522 lung, > 100 µM in the assay with UACC-62 melanoma and > 100 µM with HT29 colon.
